{"source": "patent US10335449B2", "about": "“Rho associated kinase (ROCK) inhibitors and their use in treating disease” (UNIVERSITY OF HOUSTON SYSTEM, priority 2014, dated 2019)", "key": {"[1]": {"biological_target": "ROCK1 (Homo sapiens, UniProt Q13464)", "sequence (Q13464 whole entry, species assumed, the tested form may be a part)": "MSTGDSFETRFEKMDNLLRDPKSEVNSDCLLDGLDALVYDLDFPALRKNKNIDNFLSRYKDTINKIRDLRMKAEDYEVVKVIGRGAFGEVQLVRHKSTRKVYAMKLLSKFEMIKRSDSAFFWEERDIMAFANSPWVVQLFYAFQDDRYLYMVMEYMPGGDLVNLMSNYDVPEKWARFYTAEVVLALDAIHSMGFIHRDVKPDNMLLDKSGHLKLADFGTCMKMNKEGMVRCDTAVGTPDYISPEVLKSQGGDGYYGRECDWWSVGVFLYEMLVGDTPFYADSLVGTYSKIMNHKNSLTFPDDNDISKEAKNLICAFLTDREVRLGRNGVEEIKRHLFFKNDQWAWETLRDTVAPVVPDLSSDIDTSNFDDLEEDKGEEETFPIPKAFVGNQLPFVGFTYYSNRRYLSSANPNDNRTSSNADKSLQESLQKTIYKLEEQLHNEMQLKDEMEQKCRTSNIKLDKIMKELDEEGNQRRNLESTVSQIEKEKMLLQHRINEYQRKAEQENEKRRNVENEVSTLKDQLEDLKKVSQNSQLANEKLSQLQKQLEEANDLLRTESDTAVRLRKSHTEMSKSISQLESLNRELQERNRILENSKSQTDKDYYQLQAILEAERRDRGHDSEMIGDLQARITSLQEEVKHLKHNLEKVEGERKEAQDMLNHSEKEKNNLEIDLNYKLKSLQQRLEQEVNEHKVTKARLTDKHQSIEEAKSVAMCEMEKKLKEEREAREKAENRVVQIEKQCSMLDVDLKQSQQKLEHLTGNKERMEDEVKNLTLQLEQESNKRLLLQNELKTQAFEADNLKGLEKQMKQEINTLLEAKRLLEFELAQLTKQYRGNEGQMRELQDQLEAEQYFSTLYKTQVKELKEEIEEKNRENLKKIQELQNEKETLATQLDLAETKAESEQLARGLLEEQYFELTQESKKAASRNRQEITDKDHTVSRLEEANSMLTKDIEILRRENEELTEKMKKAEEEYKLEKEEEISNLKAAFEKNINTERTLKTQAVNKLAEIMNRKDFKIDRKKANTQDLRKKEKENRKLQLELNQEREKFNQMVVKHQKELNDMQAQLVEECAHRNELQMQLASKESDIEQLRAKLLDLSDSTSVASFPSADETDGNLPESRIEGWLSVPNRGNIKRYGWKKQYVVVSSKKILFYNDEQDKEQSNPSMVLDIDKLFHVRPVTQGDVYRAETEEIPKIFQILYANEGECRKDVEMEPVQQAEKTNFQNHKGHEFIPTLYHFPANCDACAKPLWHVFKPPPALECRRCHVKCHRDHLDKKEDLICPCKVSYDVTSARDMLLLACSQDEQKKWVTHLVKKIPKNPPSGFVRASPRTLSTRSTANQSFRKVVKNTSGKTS", "experiment": "Luciferase assay of peptide25 fragments and alanine substitutions", "format": "biochemical", "experimental": "(Right panel) Likewise the alanine substitution at positions Y4, S5, P6, and S7 all reduced the effectiveness of peptide25.\nThe peptide25 was divided into fragments; ERTYS (F1; SEQ ID NO: 3), YSPST (F2; SEQ ID NO: 4), and STAVRS (F3; SEQ ID NO: 2). […] Additionally, an alanine substitution was performed at each position to look for amino acids that putatively might be important to binding and when replaced reduced the response."}, "[2]": {"biological_target": "citron kinase (Homo sapiens, UniProt O14578)", "sequence (O14578 whole entry)": "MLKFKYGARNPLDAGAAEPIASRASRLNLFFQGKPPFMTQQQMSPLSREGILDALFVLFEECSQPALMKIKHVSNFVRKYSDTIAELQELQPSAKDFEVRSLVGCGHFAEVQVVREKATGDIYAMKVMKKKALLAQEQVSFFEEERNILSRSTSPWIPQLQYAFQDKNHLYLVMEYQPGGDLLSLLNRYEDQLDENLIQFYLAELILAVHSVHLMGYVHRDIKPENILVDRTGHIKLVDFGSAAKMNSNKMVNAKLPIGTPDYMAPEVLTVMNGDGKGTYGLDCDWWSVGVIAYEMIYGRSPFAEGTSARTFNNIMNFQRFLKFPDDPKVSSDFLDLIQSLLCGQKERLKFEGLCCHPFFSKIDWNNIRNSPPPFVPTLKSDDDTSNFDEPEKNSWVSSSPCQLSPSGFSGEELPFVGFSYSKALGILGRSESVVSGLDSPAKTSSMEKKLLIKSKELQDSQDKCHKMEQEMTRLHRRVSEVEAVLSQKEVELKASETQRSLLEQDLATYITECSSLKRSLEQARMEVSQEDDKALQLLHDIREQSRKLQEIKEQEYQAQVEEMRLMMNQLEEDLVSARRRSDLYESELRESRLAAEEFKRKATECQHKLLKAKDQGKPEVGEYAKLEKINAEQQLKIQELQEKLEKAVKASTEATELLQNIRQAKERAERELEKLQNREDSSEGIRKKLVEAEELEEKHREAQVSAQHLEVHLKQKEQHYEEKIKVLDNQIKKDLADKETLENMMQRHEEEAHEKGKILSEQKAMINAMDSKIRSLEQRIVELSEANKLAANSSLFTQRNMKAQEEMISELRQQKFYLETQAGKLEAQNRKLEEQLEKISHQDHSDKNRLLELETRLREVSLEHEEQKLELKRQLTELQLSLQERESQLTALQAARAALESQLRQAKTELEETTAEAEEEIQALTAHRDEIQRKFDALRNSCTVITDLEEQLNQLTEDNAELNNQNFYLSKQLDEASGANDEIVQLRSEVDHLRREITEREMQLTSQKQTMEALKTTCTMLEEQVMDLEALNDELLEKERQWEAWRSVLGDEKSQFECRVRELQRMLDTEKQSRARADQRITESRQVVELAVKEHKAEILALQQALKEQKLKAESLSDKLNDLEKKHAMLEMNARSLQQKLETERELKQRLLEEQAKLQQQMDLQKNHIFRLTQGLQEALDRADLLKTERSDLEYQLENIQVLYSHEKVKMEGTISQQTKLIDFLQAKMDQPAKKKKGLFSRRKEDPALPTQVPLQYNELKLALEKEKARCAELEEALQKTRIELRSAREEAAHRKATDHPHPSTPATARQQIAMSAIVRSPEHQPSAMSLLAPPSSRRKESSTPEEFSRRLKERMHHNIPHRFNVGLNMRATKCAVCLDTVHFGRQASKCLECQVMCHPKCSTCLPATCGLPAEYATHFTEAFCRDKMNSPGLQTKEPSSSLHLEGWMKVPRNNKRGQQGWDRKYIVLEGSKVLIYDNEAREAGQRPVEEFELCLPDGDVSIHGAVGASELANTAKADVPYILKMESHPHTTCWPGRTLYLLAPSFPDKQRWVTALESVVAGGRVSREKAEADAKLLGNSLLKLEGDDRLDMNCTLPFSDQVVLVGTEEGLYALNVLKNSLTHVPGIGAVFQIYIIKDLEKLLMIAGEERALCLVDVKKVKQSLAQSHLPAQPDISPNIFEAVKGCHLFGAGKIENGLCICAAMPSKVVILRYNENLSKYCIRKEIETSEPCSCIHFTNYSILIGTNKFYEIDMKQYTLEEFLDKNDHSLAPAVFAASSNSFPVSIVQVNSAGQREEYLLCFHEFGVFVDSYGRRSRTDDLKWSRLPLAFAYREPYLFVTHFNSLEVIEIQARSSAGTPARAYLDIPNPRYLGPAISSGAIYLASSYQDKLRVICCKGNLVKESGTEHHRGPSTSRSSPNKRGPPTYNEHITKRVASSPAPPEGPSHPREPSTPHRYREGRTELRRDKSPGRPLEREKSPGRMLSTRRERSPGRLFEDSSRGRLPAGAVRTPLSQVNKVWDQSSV", "settings": "cited from earlier work"}, "[3]": {"tested_on": "protein kinase A", "settings": "cited from earlier work"}, "[4]": {"tested_on": "cell movement into the wound (ROCK1)", "experiment": "Wound healing scratch test", "format": "cell-based", "settings": "for percent of healing (mean): standard scratch test, at least N=5 trials, control mean 17.4", "experimental": "Peptide25 change in perimeter (mean: 15%; p-value: 0.03) was evaluated for 4 separate experiments with each having 3 trials for a total of 12 measurements. These experiments included two controls, one with no treatment the other with only the TAT peptide.\nPeptide fragments were chosen based on the information from analysis of critical residues and the candidate sequences Pep25-A AAYSPST (Pep25-A; SEQ ID NO: 62) and ERTYSPS (Pep25-P2; SEQ ID NO: 69) were evaluated again using a wound healing scratch test."}, "[5]": {"biological_target": "T1, ROCK1 catalytic domain (MBP-ROCK1) (Homo sapiens, UniProt Q13464)", "T1 construct": "made in house", "T1 sequence (Q13464 76-338 limits assumed, species assumed)": "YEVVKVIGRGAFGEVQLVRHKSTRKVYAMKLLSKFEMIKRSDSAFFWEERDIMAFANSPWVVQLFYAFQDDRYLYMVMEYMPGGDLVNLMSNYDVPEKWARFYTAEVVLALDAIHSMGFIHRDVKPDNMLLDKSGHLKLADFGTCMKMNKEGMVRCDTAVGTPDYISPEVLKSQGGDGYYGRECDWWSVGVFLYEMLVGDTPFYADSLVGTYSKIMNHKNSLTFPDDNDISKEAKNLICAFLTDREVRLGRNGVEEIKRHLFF", "experiment": "ROCK1 autophosphorylation inhibition by phage-displayed peptides", "format": "biochemical", "settings": "for ROCK autophosphorylation inhibition: high ATP levels (1 mM)", "experimental": "The maltose binding protein fusion protein linked to the ROCK1 kinase domain (MBP-ROCK1) was incubated with a Ph.D-12 phage display library of 12 amino acids in length (New England Biolabs, Inc).\nThe ROCK1 catalytic domain (MBP-ROCK1) was linked to a maltose binding protein fusion protein and was incubated with a Ph.D-12 phage display library of 12 amino acids in length (New England Biolabs, Inc.)."}, "[6]": {"biological_target": "ROCK2 (Homo sapiens, UniProt O75116)", "experiment": "Surface Plasmon Resonance binding (BiaCore)", "settings": "SPR, data not shown", "description": "FIG. 6—Determination of binding affinity of TATpeptide25. Proteins MBP, ROCK2, ROCK1-553. ROCK1-415 Were immobilized on CM-5 chip and peptide binding affinity was monitored by BiaCore system. Peptide TAT was used as control to monitored non-specific binding.\nSurface Plasmon Resonance (SPR) was used to measure peptide25 binding efficiency with ROCK."}, "[7]": {"tested_on": "cellular cytoskeleton", "experiment": "Cellular cytoskeleton disruption in cell culture", "format": "cell-based", "settings": "added to cell culture medium", "description": "Peptides25 was synthesized and one of which contained a fusion of the N′ end terminal TAT sequence (TATpeptide25), which allows peptides and proteins easy entry into cells.\nPeptides25 was synthesized and an additional synthesis which contained a fusion of the N′ end terminal TAT sequence (TATpeptide25), which allows peptides and proteins easy entry into cells. […] The TAT polypeptide sequence alone was ineffective. At the cellular level, the cell cytoskeleton changed after TATpeptide25 was introduced into cell culture medium as expected, since ROCK is a mediator for cell morphology and cell migration."}, "[8]": {"tested_on": "aortic rings contracted with U46619", "experiment": "Aortic ring contractility assay (ring bath, U46619)", "set-up": "species or system mice", "experimental": "Channel evaluation of concentrations 150, 200, 300, 100, 250, and 50 μM. Channel 7 (last graph) is the control.\nAortas were collected from adult mice, removed the surrounding fat tissues and installed the freshly cut rings in 2 mm sections on the isometric transducer apparatus. After adjusting the rings tension through series of contraction and relaxation, the rings were constricted 3 times with the 40 mM KCl to achieve consistent contraction. In order to find the effective contraction inducing dose of U46619, following the relaxation of the rings after the KCl contraction, the rings were subjected to contraction by adding different doses of U46619, a vasoconstrictor. 1-3 nM U46619 was chosen do the further experiments. […] Second dose of U46619 was applied to contract the ring. The affection was measured by the difference of the highest response of U46619 with and without Pep25-P2. […] One ring had 26% decreasing, the other had 40% decreasing."}, "[9]": {"tested_on": "ROCK", "sequence (Q13464 6-415 limits assumed)": "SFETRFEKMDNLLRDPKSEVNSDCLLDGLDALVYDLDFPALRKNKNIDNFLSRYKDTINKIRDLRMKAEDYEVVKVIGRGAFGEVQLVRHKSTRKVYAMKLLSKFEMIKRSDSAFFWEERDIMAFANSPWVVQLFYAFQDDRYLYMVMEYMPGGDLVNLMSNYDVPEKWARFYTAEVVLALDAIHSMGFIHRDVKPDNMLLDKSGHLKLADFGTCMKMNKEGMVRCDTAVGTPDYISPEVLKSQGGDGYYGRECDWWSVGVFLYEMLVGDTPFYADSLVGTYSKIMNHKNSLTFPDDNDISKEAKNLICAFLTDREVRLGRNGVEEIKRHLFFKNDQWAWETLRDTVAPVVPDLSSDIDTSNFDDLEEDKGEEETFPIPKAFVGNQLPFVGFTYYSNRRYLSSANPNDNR", "experiment": "ROCK and S6 substrate reaction followed by mass spectrum", "format": "biochemical", "experimental": "FIG. 10—(Left panel) Mass spectrum, two peaks labeled as S6 and pS6 were non-phosphorylated and phosphorylated S6 from ROCK reaction mixture. Following the decreasing concentration of Pep25-P2, the phosphorylated peak pS6 was increasing. (Right panel) S6 conversion ratios were calculated by phosphorylated peak area divided by the sum of phosphorylated and non-phosphorylated peaks' areas.\nTo determine its inhibition at substrate conversion, different concentrations of Pep25-P2 was added to a ROCK and S6 (substrate) reaction mixture. In MS data, peaks representing phosphorylated and non-phosphorylated S6 substrates were then identified (FIG. 10)."}}, "note": "Several values for one entry are separate records, joined by “and”; a condition that tells them apart may be missing. Identical values can stand only once. Entries after “also recorded” stand apart in the source; their conditions may differ. No end group written: not given here.", "data": [{"molecule": "YSPST [F2]", "values": [{"measurement": "inhibitory activity measured by luciferase assay", "setting": "[1]", "result": "retained its activity"}]}, {"molecule": "ERTYS [F1]", "values": [{"measurement": "inhibitory activity measured by luciferase assay", "setting": "[1]", "result": "retained its activity"}]}, {"molecule": "O=S(=O)(c1cccc2cnccc12)N1CCCNCC1", "note": "[Fusadil]", "values": [{"measurement": "inhibition of citron kinase", "setting": "[2]", "result": "also inhibit"}, {"measurement": "inhibition of protein kinase A", "setting": "[3]", "result": "also inhibit"}]}, {"molecule": "ERTYSPSTAVRS [peptide25]", "values": [{"measurement": "change in perimeter at the intersection of the scratch (mean)", "setting": "[4]; 4 separate experiments, 3 trials each, 12 measurements, p-value 0.03", "result": 15, "unit": "%"}, {"measurement": "ROCK autophosphorylation inhibition", "setting": "[5]", "result": "blocked ROCK autophosphorylation"}, {"measurement": "ROCK1 activity", "setting": "[5]; in the presence of mM ATP", "result": "blocked ROCK1 activity"}, {"measurement": "autophosphorylated inhibition", "setting": "[5]; phage display candidates", "result": "exhibited autophosphorylated inhibition"}, {"measurement": "binding with ROCK1 as compared to ROCK2", "setting": "[6]", "result": "demonstrated some difference"}]}, {"molecule": "AAYSPST [Pep25-A]", "values": [{"measurement": "percent of healing (mean)", "setting": "[4]", "result": 15.1, "unit": "%"}]}, {"molecule": "ERTYSPS [Pep25-P2]", "values": [{"measurement": "wound healing / ROCK1 inhibition in scratch test", "setting": "[4]", "result": "inhibited ROCK1 more effectively; also recorded: inhibited wound healing"}, {"measurement": "effective dose from dose curve", "setting": "[4]; scratch test dose response", "result": 40, "unit": "µM"}, {"measurement": "percent of healing (mean)", "setting": "[4]", "result": 13.1, "unit": "%"}, {"measurement": "effect on cellular cytoskeleton", "setting": "[7]", "result": "disrupted actin exoskeleton formation"}, {"measurement": "suppression of U46619 contractility", "setting": "[8]; 50-300 μM, preincubation 20 min", "result": "showed suppression of contractility of U46619; also recorded: dose dependant response"}, {"measurement": "decrease of highest U46619 contraction response", "setting": "[8]; 200 and 300 μM preincubated 10 min, one ring each, 1-3 nM U46619", "result": "26% and 40%"}, {"measurement": "phosphorylation of substrate S6 by ROCK (conversion ratio)", "setting": "[9]; different concentrations of peptide in ROCK and S6 reaction mixture", "result": "repressed the phosphorylation of substrate S6 by ROCK"}, {"measurement": "phosphorylation of the peptide by ROCK", "setting": "[9]; mass spectrum", "result": "couldn't be phosphorylated by ROCK"}]}, {"molecule": "TATpeptide25: peptide25 with a fusion of the N′ end terminal TAT sequence (ERTYSPSTAVRS; also: N-terminal TAT sequence fusion, not in given chain)", "values": [{"measurement": "effect on cellular cytoskeleton", "setting": "[7]", "result": "disassociated or “melted” cellular cytoskeleton"}, {"measurement": "effect on cellular cytoskeleton", "setting": "[7]; listed as TAT-end-labeled peptide25", "result": "melted cytoskeleton"}]}, {"molecule": "STAVRS [F3]", "values": [{"measurement": "inhibitory activity measured by luciferase assay", "setting": "[1]", "result": "lost effectively; also recorded: did not confer an inhibitory response"}]}, {"molecule": "C[C@@H](N)[C@H]1CC[C@H](C(=O)Nc2ccncc2)CC1", "note": "[Y27632]", "values": [{"measurement": "effect on cellular cytoskeleton", "setting": "[7]", "result": "melted cytoskeleton"}, {"measurement": "inhibition of citron kinase", "setting": "[2]", "result": "also inhibit"}, {"measurement": "ROCK autophosphorylation inhibition", "setting": "[5]", "result": "blocked Y27632 inhibitory activity"}, {"measurement": "inhibition of protein kinase A", "setting": "[3]", "result": "also inhibit"}]}]}
